The structures appear in SMILES notation. Bounds are passed on as bounds.

Holding throughout (format): cell-based
In one test the test system is HL60 cells. In words: Activity on the differentiation of HL60 cells (NBT reduction). The conditions noted are these: Homo sapiens, HL-60, 96 h, 4 days of culture, NBT-positive cells counted. The source says:
The biological properties analogous to vitamin D may also be measured by the capacity of the product to induce differentiation of promyelocytic leukaemia cells HL60. The protocol and the results obtained with the compounds according to the invention are described in Example 6 of the present application.
Calcitriol induces the differentiation of promyelocytic leukaemia cells (HL60) into monocytes/macrophages. This differentiation-inducing effect is a well characterized marker for cellular vitamin D. One of the most important anti-microbial products of macrophages is hydrogen peroxide, which may be analyzed experimentally by the reduction of NBT (Nitroblue Tetrazolium).
The method used is the following: the HL60 cells are inoculated into 6-well plates and then treated immediately with a test compound. After 4 days of culture, the cells are incubated with phorbol TPA ester and NBT for a short period and the differentiated cells, that is to say which are positive to NBT are counted.

Test [1] relates to normal human keratinocytes. In words: Activity on the proliferation of human keratinocytes (BrdU incorporation). The settings on record: Keratinocyte, 120 h, 5 days of culture, read-out: IC50 - proliferation of the KHNs. On the procedure:
The biological properties which are similar to vitamin D may also be measured by the capacity of the product to inhibit the proliferation of normal human keratinocytes (NHK in culture). The product is added to NHKs cultured under conditions promoting the proliferative state. The product is left in contact with the cells for 5 days. The number of proliferative cells is measured by incorporation of bromodeoxyuridine (BRdU) into DNA. The protocol for this test and the results obtained with the compounds according to the invention are described in Example 8 of the present application.
The method used is the following: normal human keratinocytes are inoculated at low density into a 24-well plate. After 4 hours, the compounds to be tested are added to the culture medium. After 5 days of culture, the proliferation of the kerátinocytes is determined by incorporating 5-bromo-2′-deoxyuridine (BrdU) into the DNA. The quantity of BrdU incorporated is then measured using the ELISA test (Enzyme Linked Immuno Sorbent Assay, marketed by Roche Molecular Biochemicals).
For orientation: Incorporation of labelled thymidine or its analogues reports DNA synthesis.

In the next test the target is T1, human VDR receptor (Homo sapiens, UniProt P11473).
T1 construct: expressed in transfected cells; host or cells: HeLa
T1 sequence (P11473 1-427): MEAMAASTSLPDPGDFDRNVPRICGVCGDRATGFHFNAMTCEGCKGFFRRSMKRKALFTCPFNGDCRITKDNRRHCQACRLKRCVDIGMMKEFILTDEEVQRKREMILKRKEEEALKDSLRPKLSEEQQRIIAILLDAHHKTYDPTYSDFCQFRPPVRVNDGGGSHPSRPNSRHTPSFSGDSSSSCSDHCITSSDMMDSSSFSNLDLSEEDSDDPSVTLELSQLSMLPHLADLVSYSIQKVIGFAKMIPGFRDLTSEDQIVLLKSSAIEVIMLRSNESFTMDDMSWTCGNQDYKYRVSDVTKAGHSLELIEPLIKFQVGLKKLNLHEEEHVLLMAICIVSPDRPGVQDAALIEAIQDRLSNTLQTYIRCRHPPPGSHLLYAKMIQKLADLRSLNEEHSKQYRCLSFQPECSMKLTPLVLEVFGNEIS
In words: VDR agonist activity, co-transfection of HeLa cells with human VDR expression vector and reporter plasmid p240Hase-CAT. The settings on record: CAT reporter (rat 24-hydroxylase promoter), 18 hours of treatment. On the procedure: By way of example, the VDR agonist activity may be tested on the HeLa cell line, by co-transfecting a human VDR receptor expression vector and the reporter plasmid p240Hase-CAT. The agonist activity may also be characterized in this co-transfection system by the determination of the dose necessary to reach 50% of the maximum activity of the product (AC50).
18 hours after co-transfection, the compound to be tested is added to the medium. After 18 hours of treatment, the assay of the CAT activity of the cellular lysates is carried out by an ELISA test (Enzyme Linked Immuno Sorbent Assay, marketed by Roche Molecular Biochemicals). The agonist activity may be characterized in this co-transfection system by determining the dose required to reach 50% of the maximum activity of the compound tested (AC50).

As to `Cc1cc(CCCc2ccc(CO)c(CO)c2)ccc1OCC(O)C(C)(C)C` (stereo not drawn) [Compound of Example 2, 1-{4-[3-(3,4-Bis-hydroxymethyl-phenyl)-propyl]-2-methyl-phenoxy}-3,3-dimethyl-butan-2-ol], the half-maximal activity concentration (AC50) (usually the concentration giving half of the maximal activity seen) in the test on HL60 cells was found to be 2500 nM; on human VDR receptor it was 172 nM. Moreover, in test [1], the IC50 stood at 140 nM.

Regarding `C=C1/C(=C\C=C2/CCC[C@]3(C)[C@@H]([C@H](C)CCCC(C)(C)O)CC[C@@H]23)C[C@@H](O)C[C@@H]1O` [Calcitriol, 1,25-dihydroxyvitamin D3, reference compound], the AC50 with HL60 cells was found to be 10.7 nM. Regarding `CCc1cc(CCCc2ccc(CO)c(CO)c2)ccc1OCC(O)C(C)(C)C` (stereo not drawn) [Compound of Example 1, 1-{4-[3-(3,4-Bis-hydroxymethyl-phenyl)-propyl]-2-ethyl-phenoxy}-3,3-dimethyl-butan-2-ol], the AC50 in the test on HL60 cells was 312 nM; at human VDR receptor it was 40 nM. Besides, the IC50 in test [1] amounted to 150 nM. Consider `CCc1cc(CCCc2ccc(CO)c(CO)c2)ccc1OCC(O)(CC)CC` [Compound of Example 3, (4-{3-(3-Ethyl-4-(2-ethyl-2-hydroxy-butoxy)-phenyl]-propyl}-2-hydroxymethyl-phenyl)-methanol], for which the AC50 on human VDR receptor came to 1210 nM. The same measure, in the same setting: next, `CCC(O)(CC)COc1ccc(CCCc2ccc(CO)c(CO)c2)cc1C` [Compound of Example 4, (4-{3-(4-(2-Ethyl-2-hydroxy-butoxy)-3-methyl-phenyl]-propyl)-2-hydroxymethyl-phenyl)-methanol]: more than 3000 nM.

For the origin of these results see patent US7312249B2, “Vitamin D analogues” (Galderma Research & Development, priority 2002, dated 2007).
